In ChEMBL document CHEMBL1201862, “PubChem BioAssay data set” (2004):
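How tested: cells in 96-well plates exposed to compound for 48 hours at five concentrations. The concentration for 50% growth inhibition is given as GI50.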 Activity calls are given as the source filed them. Cut-off read from the data, not from the text of the source: active = GI50 up to about 1.1 µM and inactive = higher.

How the values were obtained:
Test in all cases: inhibition of tumour cell growth, NCI panel, 48 h
OVCAR-8 = tested on: OVCAR-8
SF-268 = tested on: SF-268
NCI-H226 = tested on: NCI-H226
ACHN = tested on: ACHN
K562 = tested on: K562
SR = tested on: SR
MDA-MB-231 = tested on: MDA-MB-231
NCI/ADR-RES = tested on: NCI/ADR-RES
PC-3 = tested on: PC-3
HT-29 = tested on: HT-29
MOLT-4 = tested on: MOLT-4
SNB-75 = tested on: SNB-75
TK-10 = tested on: TK-10
OVCAR-3 = tested on: OVCAR-3
SW-620 = tested on: SW-620
786-0 = tested on: 786-0
NCI-H23 = tested on: NCI-H23
UACC-62 = tested on: UACC-62
Malme-3M = tested on: Malme-3M
SK-OV-3 = tested on: SK-OV-3
OVCAR-4 = tested on: OVCAR-4
Hs-578T = tested on: Hs-578T
HOP-62 = tested on: HOP-62
SF-539 = tested on: SF-539
LOX IMVI = tested on: LOX IMVI
KM12 = tested on: KM12
SK-MEL-2 = tested on: SK-MEL-2
SK-MEL-28 = tested on: SK-MEL-28
COLO 205 = tested on: COLO 205
SN12C = tested on: SN12C
SNB-19 = tested on: SNB-19
HCT-116 = tested on: HCT-116
A498 = tested on: A498
SF-295 = tested on: SF-295
HCT-15 = tested on: HCT-15
UO-31 = tested on: UO-31
RPMI-8226 = tested on: RPMI-8226
A549 = tested on: A549
MDA-N = tested on: MDA-N
MDA-MB-435 = tested on: MDA-MB-435
CCRF-CEM = tested on: CCRF-CEM
M14 = tested on: M14
EKVX = tested on: EKVX
OVCAR-5 = tested on: OVCAR-5
IGROV-1 = tested on: IGROV-1
U-251 = tested on: U-251
SK-MEL-5 = tested on: SK-MEL-5
DU-145 = tested on: DU-145
MCF7 = tested on: MCF7
UACC-257 = tested on: UACC-257
HL-60 = tested on: HL-60
HCC 2998 = tested on: HCC 2998
RXF 393 = tested on: RXF 393
NCI-H460 = tested on: NCI-H460
NCI-H522 = tested on: NCI-H522

## CC(=O)Oc1cc2oc(=O)cc(C)c2cc1OC(C)=O
OVCAR-8
  GI50: 32.2 µM (inactive)
SF-268
  GI50: 36.6 µM (inactive)
NCI-H226
  GI50: 40.2 µM (inactive)
ACHN
  GI50: 42.2 µM (inactive)
K562
  GI50: 55.7 µM (inactive)
SR
  GI50: 39.6 µM (inactive)
MDA-MB-231
  GI50: 58.7 µM (inactive)
NCI/ADR-RES
  GI50: 32.4 µM (inactive)
PC-3
  GI50: 84.9 µM (inactive)
HT-29
  GI50: 39.6 µM (inactive)
MOLT-4
  GI50: 74.8 µM (inactive)
SNB-75
  GI50: 48.4 µM (inactive)
TK-10
  GI50: 44.5 µM (inactive)
OVCAR-3
  GI50: 33.1 µM (inactive)
SW-620
  GI50: 46.2 µM (inactive)
786-0
  GI50: 61 µM (inactive)
NCI-H23
  GI50: 75.2 µM (inactive)
UACC-62
  GI50: 58.2 µM (inactive)
Malme-3M
  GI50: 28.5 µM (inactive)
SK-OV-3
  GI50: > 100 µM (inactive)
OVCAR-4
  GI50: 85.7 µM (inactive)
Hs-578T
  GI50: 68.4 µM (inactive)
HOP-62
  GI50: 51.8 µM (inactive)
SF-539
  GI50: 31.3 µM (inactive)
LOX IMVI
  GI50: 40.2 µM (inactive)
KM12
  GI50: 68.7 µM (inactive)
SK-MEL-2
  GI50: > 100 µM (inactive)
SK-MEL-28
  GI50: 53.1 µM (inactive)
COLO 205
  GI50: 48 µM (inactive)
SN12C
  GI50: 48.1 µM (inactive)
SNB-19
  GI50: > 100 µM (inactive)
HCT-116
  GI50: 44 µM (inactive)
A498
  GI50: 44.6 µM (inactive)
SF-295
  GI50: 41.8 µM (inactive)
HCT-15
  GI50: 38.5 µM
UO-31
  GI50: 24.6 µM (inactive)
RPMI-8226
  GI50: 45.7 µM (inactive)
A549
  GI50: 37.3 µM (inactive)
MDA-N
  GI50: > 100 µM (inactive)
MDA-MB-435
  GI50: 48.4 µM (inactive)
CCRF-CEM
  GI50: 16.7 µM (inactive)
M14
  GI50: 50.6 µM (inactive)
EKVX
  GI50: 52.5 µM (inactive)
OVCAR-5
  GI50: > 100 µM (inactive)
IGROV-1
  GI50: 27.9 µM (inactive)
U-251
  GI50: 51.1 µM (inactive)
SK-MEL-5
  GI50: > 100 µM (inactive)
DU-145
  GI50: 52.7 µM (inactive)
MCF7
  GI50: 38.8 µM (inactive)
UACC-257
  GI50: 48.9 µM (inactive)

## O=C(N/N=C/c1cc(Cl)cc(Cl)c1O)c1ccccc1O
OVCAR-8
  GI50: 0.198 µM (active)
SF-268
  GI50: 0.48 µM (active)
ACHN
  GI50: 0.447 µM (active)
K562
  GI50: 0.977 µM (active)
SR
  GI50: 0.388 µM (active)
HT-29
  GI50: 3.65 µM (inactive)
HL-60
  GI50: 0.221 µM (active)
SNB-75
  GI50: 2.44 µM (inactive)
TK-10
  GI50: 2.23 µM (inactive)
OVCAR-3
  GI50: 0.305 µM (active)
SW-620
  GI50: 0.601 µM (active)
UACC-62
  GI50: 0.323 µM (active)
SK-OV-3
  GI50: 0.687 µM (active)
LOX IMVI
  GI50: 0.398 µM (active)
SK-MEL-28
  GI50: 1.31 µM (inactive)
SN12C
  GI50: 2.36 µM (inactive)
SNB-19
  GI50: 3.18 µM (inactive)
A498
  GI50: 7.5 µM (inactive)
SF-295
  GI50: 0.721 µM (active)
HCT-15
  GI50: 0.46 µM
UO-31
  GI50: 2.88 µM (inactive)
HCC 2998
  GI50: 2.17 µM (inactive)
RXF 393
  GI50: 0.946 µM (active)
CCRF-CEM
  GI50: 0.279 µM (active)
M14
  GI50: 0.847 µM (active)
OVCAR-5
  GI50: 2.08 µM (inactive)
IGROV-1
  GI50: 2.62 µM (inactive)
NCI-H460
  GI50: 0.656 µM (active)
NCI-H522
  GI50: 0.441 µM (active)
U-251
  GI50: 0.849 µM (active)
SK-MEL-5
  GI50: 1.57 µM (inactive)
UACC-257
  GI50: 2.04 µM (inactive)
